Experimental data as given in patent US5032680A (priority 1988, dated 1991).

Assays:
[1] = system: Mouse transplantable tumour Sarcoma 180 cells; assay: Measurement of antitumour activity value (Sarcoma 180 subcutaneously transplanted, oral administration); assay type: in vivo, male ICR/JCL mice; details: once a day for 9 consecutive days, tumour weight on day 12, Sarcoma 180, ICR/JCL mice; for ED50 (dose at which tumour proliferation-inhibitory rate is over 50%): 17280 min
Method: Mouse transplantable tumour Sarcoma 180 cells (5×10^6 cells) were transplanted subcutaneously into male ICR/JCL mice (weighing 27-30 g) in the back. The test compounds were dissolved or suspended in a 0.5 weight % aqueous solution of CMC containing Tween 80 at the concentration of 0.1 weight % to afford test preparations. Using 7 animals per group, the test preparations were orally administered to each mouse at the dose of 0.1 ml/10 g mouse body weight once a day for consecutive 9 days from the following day of the day when the tumours were transplanted.
On the twelfth day from the day of tumour-transplantation, the average weight of tumours for each of the test compounds at the respective doses was measured. The weight was compared with the average weight of the tumours of the control group, and the tumour proliferation-inhibitory rates of the test compounds based on that of the control group were estimated at the respective dose.

[2] = system: tumour; details: cited from earlier work
[3] = in vivo; cited from earlier work
[4] = in vivo; cited from earlier work; remark: listed apart in the source

**Q.** Which “ED50 (dose at which tumour proliferation-inhibitory rate is over 50%)” value [1] does the source give for `O=c1[nH]c(=O)n([C@H]2C[C@H](O)[C@@H](COP(=O)(Oc3ccccc3)Oc3ccccc3)O2)cc1F` [Ex. 1, diphenyl 2'-deoxy-5-fluoro-5'-uridylate] here?
**A.** The value was 11.1 mg/kg.

**Q.** Which “ED50 (dose at which tumour proliferation-inhibitory rate is over 50%)” value [1] does the source give for `O=C(c1ccccc1)n1c(=O)c(F)cn([C@H]2C[C@H](O)[C@@H](COP(=O)(Oc3ccccc3)Oc3ccccc3)O2)c1=O` [Ex. 3, diphenyl 3-benzoyl-2'-deoxy-5-fluoro-5'-uridylate] here?
**A.** The value was 7.0 mg/kg.

**Q.** Which “ED50 (dose at which tumour proliferation-inhibitory rate is over 50%)” value [1] does the source give for `CC(C)=CCCC(C)CCOP(=O)(OC[C@H]1O[C@@H](n2cc(F)c(=O)[nH]c2=O)C[C@@H]1O)Oc1ccccc1` (stereo partly drawn) [Ex. 5, citroneryl phenyl 2'-deoxy-5-fluoro-5'-uridylate] here?
**A.** Its value is 23.8 mg/kg.

**Q.** With `Cc1cc(OP(=O)(OC[C@H]2O[C@@H](n3cc(F)c(=O)[nH]c3=O)C[C@@H]2O)Oc2ccccc2)ccc1Cl` (stereo partly drawn) [Ex. 6, 4-chloro-3-methylphenyl phenyl 2'-deoxy-5-fluoro-5'-uridylate] as the compound, how does the “ED50 (dose at which tumour proliferation-inhibitory rate is over 50%)” value [1] read?
**A.** The value was 6.2 mg/kg.

**Q.** For `O=c1[nH]c(=O)n([C@H]2C[C@H](O)[C@@H](COP(=O)(Oc3ccc(Cl)cc3)Oc3ccc(Cl)cc3)O2)cc1F` [Ex. 7, di-p-chlorophenyl 2'-deoxy-5-fluoro-5'-uridylate], which “ED50 (dose at which tumour proliferation-inhibitory rate is over 50%)” value [1] is on record?
**A.** Its value is 1.4 mg/kg.

**Q.** For `O=c1[nH]c(=O)n([C@H]2C[C@H](O)[C@@H](COP(=O)(Oc3ccccc3Cl)Oc3ccccc3Cl)O2)cc1F` [Ex. 8, Di-o-chlorophenyl 2'-deoxy-5-fluoro-5'-uridylate], which “ED50 (dose at which tumour proliferation-inhibitory rate is over 50%)” value [1] is on record?
**A.** Its value is 10.0 mg/kg.

**Q.** With `O=c1[nH]c(=O)n([C@H]2C[C@H](O)[C@@H](COP(=O)(Oc3cccc(Cl)c3)Oc3cccc(Cl)c3)O2)cc1F` [Ex. 9, Di-m-chlorophenyl 2'-deoxy-5-fluoro-5'-uridylate] as the compound, how does the “ED50 (dose at which tumour proliferation-inhibitory rate is over 50%)” value [1] read?
**A.** Its value is 1.4 mg/kg.

**Q.** Which “ED50 (dose at which tumour proliferation-inhibitory rate is over 50%)” value [1] does the source give for `O=c1[nH]c(=O)n([C@H]2C[C@H](O)[C@@H](COP(=O)(Oc3cccc(Cl)c3Cl)Oc3cccc(Cl)c3Cl)O2)cc1F` [Ex. 10, Di(2,3-dichlorophenyl) 2'-deoxy-5-fluoro-5'-uridylate] here?
**A.** The value was 3.6 mg/kg.

**Q.** For `O=c1[nH]c(=O)n([C@H]2C[C@H](O)[C@@H](COP(=O)(Oc3ccc(Cl)cc3Cl)Oc3ccc(Cl)cc3Cl)O2)cc1F` [Ex. 11, Di(2,4-dichlorophenyl) 2'-deoxy-5-fluoro-5-uridylate], which “ED50 (dose at which tumour proliferation-inhibitory rate is over 50%)” value [1] is on record?
**A.** The value was 1.5 mg/kg.

**Q.** For `O=c1[nH]c(=O)n([C@H]2C[C@H](O)[C@@H](COP(=O)(Oc3ccc(Cl)c(Cl)c3)Oc3ccc(Cl)c(Cl)c3)O2)cc1F` [Ex. 12, Di(3,4-dichlorophenyl) 2'-deoxy-5-fluoro-5'-uridylate], which “ED50 (dose at which tumour proliferation-inhibitory rate is over 50%)” value [1] is on record?
**A.** The value was 2.5 mg/kg.

**Q.** Which “ED50 (dose at which tumour proliferation-inhibitory rate is over 50%)” value [1] does the source give for `O=c1[nH]c(=O)n([C@H]2C[C@H](O)[C@@H](COP(=O)(Oc3ccc4c(c3)OCO4)Oc3ccc4c(c3)OCO4)O2)cc1F` [Ex. 13, Di(3,4-methylenedioxyphenyl) 2'-deoxy-5-fluoro-5'-uridylate] here?
**A.** The value was 25.0 mg/kg.

**Q.** With `N#Cc1ccc(OP(=O)(OC[C@H]2O[C@@H](n3cc(F)c(=O)[nH]c3=O)C[C@@H]2O)Oc2ccc(C#N)cc2)cc1` [Ex. 16, Di-p-cyanophenyl 2'-deoxy-5-fluoro-5'-uridylate] as the compound, how does the “ED50 (dose at which tumour proliferation-inhibitory rate is over 50%)” value [1] read?
**A.** Its value is 6.1 mg/kg.

**Q.** Which “ED50 (dose at which tumour proliferation-inhibitory rate is over 50%)” value [1] does the source give for `O=c1[nH]c(=O)n([C@H]2C[C@H](O)[C@@H](COP(=O)(Oc3ccc(F)cc3)Oc3ccc(F)cc3)O2)cc1F` [Ex. 17, Di-p-fluorophenyl 2'-deoxy-5-fluoro-5'-uridylate] here?
**A.** The value was 1.3 mg/kg.

**Q.** Which “ED50 (dose at which tumour proliferation-inhibitory rate is over 50%)” value [1] does the source give for `O=c1[nH]c(=O)n([C@H]2C[C@H](O)[C@@H](COP(=O)(Oc3ccc(Br)cc3)Oc3ccc(Br)cc3)O2)cc1F` [Ex. 18, Di-p-bromophenyl 2'-deoxy-5-fluoro-5'-uridylate] here?
**A.** Its value is 1.2 mg/kg.

**Q.** For `O=c1[nH]c(=O)n([C@H]2C[C@H](O)[C@@H](COP(=O)(Oc3ccc(C(F)(F)F)cc3)Oc3ccc(C(F)(F)F)cc3)O2)cc1F` [Ex. 19, Di-p-trifluoromethylphenyl 2'-deoxy-5-fluoro-5'-uridylate], which “ED50 (dose at which tumour proliferation-inhibitory rate is over 50%)” value [1] is on record?
**A.** Its value is 0.9 mg/kg.

**Q.** With `CC(=O)O[C@H]1C[C@H](n2cc(F)c(=O)[nH]c2=O)O[C@@H]1COP(=O)(Oc1ccc(Cl)cc1)Oc1ccc(Cl)cc1` [Ex. 22, di-p-chlorophenyl 3'-acetyl-2'-deoxy-5-fluoro-5'-uridylate] as the compound, how does the “ED50 (dose at which tumour proliferation-inhibitory rate is over 50%)” value [1] read?
**A.** The value was 1.2 mg/kg.

**Q.** For `O=c1[nH]c(=O)n([C@H]2C[C@H](O)[C@@H](COP(=O)(Oc3ccc([N+](=O)[O-])cc3)Oc3ccc([N+](=O)[O-])cc3)O2)cc1F` [Ex. 24, di-p-nitrophenyl 2'-deoxy-5-fluoro-5'-uridylate], which “ED50 (dose at which tumour proliferation-inhibitory rate is over 50%)” value [1] is on record?
**A.** The value was 5.4 mg/kg.

**Q.** With `O=c1[nH]c(=O)n([C@H]2C[C@H](O)[C@@H](COP(=O)(Sc3ccc(Cl)cc3)Sc3ccc(Cl)cc3)O2)cc1F` [Ex. 26, 2'-deoxy-5-fluorouridine 5'-(S,S-di-p-chlorophenylphosphorodithioate)] as the compound, how does the “ED50 (dose at which tumour proliferation-inhibitory rate is over 50%)” value [1] read?
**A.** Its value is 4.2 mg/kg.

**Q.** What does the source list for `O=c1[nH]c(=O)n([C@H]2C[C@H](O)[C@@H](CO)O2)cc1F` [FdUrd, 2'-deoxy-5-fluorouridine]?
**A.** tumour proliferation-inhibitory action (in words) ([2]; cytostatic potency test (in vivo)): extremely potent tumour proliferation-inhibitory action; effect as compared with 5-fluorouracil (in words) ([2]; in vivo): can not be found to exhibit any particular superior effects as compared with 5-fluorouracil; decomposition into 5-fluorouracil (in words) [3]: a large portion thereof is decomposed into 5-fluorouracil; metabolism and excretion (in words) [3]: rapidly metabolized and excreted; ED50 ([1]; Mus musculus, 288 h, read-out: ED50 (dose at which tumour proliferation-inhibitory rate is over 50%)): 59.5 mg/kg; toxicity of FdUrd (in words) [4]: the toxicity thereof is strong
